Experiment [1] has as its system neuroD-luciferase. Briefly: neuroD-luciferase reporter gene assay in HCN cells. To be noted: HCN cells. The class given is cell-based, rat.
Experiment [2] has as its system gluR2-luc. The experiment in a line: gluR2-luciferase reporter gene assay in HCN cells. The class given is cell-based, rat. On the technique in general: In a reporter assay the amount or activity of a reporter protein is the signal.
The subject of experiment [3] is MEF2 reporter gene (3XMRE-luc). The experiment in a line: MEF2 reporter gene (3XMRE-luc) assay in HCN cells. Type of experiment: cell-based, rat. To be noted: HCN cells/NPCs, versus vehicle.
The test system of experiment [4] is HCN cells. The experiment in a line: in vitro neuronal differentiation of HCN cells (morphology, Tuj1 staining). The class given is cell-based, rat.
Experiment [5] has as its system HCN cells. The experiment in a line: glial (astrocyte, oligodendrocyte) differentiation of HCN cells/NPCs. Type of experiment: cell-based, rat. Conditions: 4 d cultures.
The subject of experiment [6] is HCN cells. The experiment in a line: RT-PCR and protein blotting of gene expression in HCN cells. Type of experiment: cell-based, rat.
The subject of experiment [7] is HDAC5. The experiment in a line: protein blotting of phospho-HDAC5, HDAC4 and phospho-CaMKII in HCN cells. To be noted: Isx/Isx-9-treated HCNs, 1-2 d. The class given is cell-based, rat.
Experiment [8] relates to adult mouse whole brain (MWB) neural progenitor cells. Briefly: neuronal differentiation of adult mouse whole brain (MWB) neural progenitor cells. Type of experiment: cell-based. Conditions: 4 d cultures. The protocol:
(§1) Neural stem cell culture, in vitro differentiation, and CaMK inhibitor studies. The hippocampal neural stem/progenitor (NSC) line used in this study (HCN cells) were originally isolated from adult (8-10 wks old) female Fisher 344 rats and have been characterized previously (Gage et al., 1995; Palmer et al., 1997). HCN cells were cultured in DMEM:F12 (Omega Scientific) with N2 supplement (Invitrogen) and basic fibroblast growth factor (20 ng/ml FGF-2) (PeproTech). The mouse whole brain neural stem/progenitors (MWB) were derived from adult (8-10 wks old) C57BL/6 mice that have been characterized previously (Ray and Gage, 2006). The P19CL6 cells is a sub-line of P19EC cells, originally generated by the late Dr. Habara-Ohkubo (Habara-Ohkubo, 1996), were grown in MEM-α (Invitrogen) containing 10% fetal bovine serum (Omega). HCN cells or MWB neural progenitors were trypsinized and plated into N2 medium (Invitrogen) containing FGF-2 (HCN cells) or FGF-2/EGF/heparin (MWB) overnight, and switched to fresh N2 medium without FGF-2 and Isx-9 (20 μM for HCN cells and 5 μM for MWB) was added for 4 d. To test if Isx-9 could block competing astrocyte or oligodendrocyte differentiation, standard gliogenic conditions were used as described previously (Hsieh et al., 2004). […]

Experiment [9] deals with P19CL6 cells. Briefly: neuronal differentiation of P19CL6 cells. The class given is cell-based, mouse. To be noted: 4 d cultures. The protocol:
as §1

Experiment [10] relates to NeuroD-luciferase. The experiment in a line: NeuroD-luciferase reporter in BTSCs. Conditions: after 24 hours, compared to vehicle. Type of experiment: cell-based, human. The protocol: (§2) CD133+ glioblastoma brain tumor stem cells (BTSCs) from an explanted human tumor specimen were treated with 20 μM Isx-9 (FIG. 9C) or vol/vol DMSO (vehicle) control (FIG. 9B).
Experiment [11] has as its system NMDA receptor 1-(NR1) luciferase. Briefly: NMDA receptor 1 (NR1)-luciferase reporter in BTSCs. The class given is cell-based, human. Conditions: after 24 hours, compared to vehicle. The protocol:
as §2

In experiment [12] the test system is human CD133(+) brain tumor stem cells (BTSCs). The experiment in a line: RT-PCR and protein blotting of gene expression in BTSCs. The class given is cell-based. The source says:
FIGS. 9A-H—Isoxazoles specifically target the CD133(+) glioblastoma cancer stem cell to adopt a neuronal fate program. […] (FIG. 9B) BTSCs cultured with DMSO (vehicle) (1% vol./vol.). (FIG. 9D) Isx-9-treated BTSCs stained with neuronal markers Tuj1 (red) and Map2ab (green), Dapi-stained nuclei is blue. Scale bar=25 μm. […] (FIGS. 9G and 9H) RT-PCR and protein blotting analysis of gene expression in Isx-9-treated BTSCs. […] GAPDH is used as a normalization control.
This activity remained following addition of FGF/EGF without additional Isx-9 addition.

Experiment [13] deals with RFP-labeled human CD133(+) BTSCs. The experiment in a line: transplantation of pre-treated RFP-labeled BTSCs into striatum of NOD/scid mice. Type of experiment: in vivo. Here is the method:
BTSC transplantation was performed by stereotactic surgery into the left striatum (coordinates from Bregma AP −0 mm, ML +2.5 mm, DV −3.5 mm) with a 33-gauge Hamilton syringe at a flow rate of 30,000 cells/10 minutes.

Entries after “also recorded” stand apart in the source; their conditions may differ.

With `O=C(NC1CC1)c1cc(-c2cccs2)on1` [Isx-9, N-cyclopropyl-5-(thiophen-2-yl)isoxazole-3-carboxamide], the “increase in neuroD luciferase reporter” value in experiment [1] was no less than 8 fold. In addition, the “increase in gluR2 luciferase reporter” value in [2] is no less than 8 fold. The “activation of MEF2 reporter gene (3XMRE-luc) / MEF2 promoter” value in experiment [3] is on record as “Dose-dependent activation”. In addition, in experiment [4] (20 μM, 4 d cultures), the “neuronal differentiation of HCN cells/NPCs” value is given as “promotes robust neuronal differentiation”. In experiment [4] (HCN cells, by 4 d), the “Tuj1+ differentiation” value was greater than 50%. Further, the “gliogenesis / glial differentiation” value in experiment [5] is “dominantly blocks gliogenesis”. Besides, the “MEF2 mRNA levels” value in [6] (2- and 4-days, compared to vehicle) is “up-regulated”. The “expression of SOX2” value in experiment [6] (HCN cells) was “decreased expression”. Moreover, in [6] (HCN cells/NPCs), the “neuronal protein expression (protein blotting)” value is listed as “increased Tuj1 protein”. Besides, the “MEF2A and MEF2C protein levels” value in [6] (protein blotting time-course, up to 64 hours) is recorded as “unchanged”. In addition, the “HDAC5 phosphorylation / cytoplasmic phospho-HDAC5” value in experiment [7] is on record as “Increased HDAC5 phosphorylation over time; also recorded: Accumulation of phospho-HDAC5 in the cytoplasm; also recorded: cytoplasmic enrichment of phospho-HDAC5”. For the same compound, the “neuronal differentiation of MWB neural progenitors” value in [8] is “promotes neuronal differentiation”. In addition, in experiment [9], the “neuronal differentiation of P19CL6 / P19 embryonal carcinoma cells” value was “promotes neuronal differentiation”. Moreover, in experiment [10], the “activation of NeuroD-luciferase in BTSCs” value is listed as “Dose-dependent activation”. Besides, the “activation of NR1-luciferase in BTSCs” value in [11] was “Dose-dependent activation”. In addition, in experiment [12], the “CD133 expression in BTSCs” value is listed as “downregulated”; the “HDAC-4 and -5 protein in BTSCs” value is on record as “remain relatively unchanged”; the “NRSF expression in BTSCs” value is “downregulated”. In addition, the “NeuroD expression in BTSCs” value in experiment [12] (2 days) is recorded as “Up-regulation of NeuroD”. Further, the “overall levels of neuronal proteins (βTujIII, GluR2) in BTSCs” value in experiment [12] (versus control) is listed as “do not significantly differ”. In experiment [13] (7-day exposure in vitro (20 μM) before transplantation), the “tumor-initiating ability of BTSCs” value was “dramatically reduces tumor-initiating ability”. For the same compound, in experiment [13] (after 1 month), the “number of RFP-labeled BTSCs in the striatum” value is recorded as “significant reduced the number of RFP-labeled BTSCs in the striatum”.

(Values after patent US8193225B2, “Isoxazole amides, derivatives and methods of chemical induction of neurogenesis” (priority 2006, dated 2012).)
